In brackets after ≈: the same amount, converted by molar mass. Entries after “also recorded” stand apart in the source; their conditions may differ.
What was measured:
A431 (squamous cells) = experiment: Cytotoxicity against cultured human cancer cells (SRB); type: cell-based; conditions: Homo sapiens, A-431, 72 h; three days incubation, SRB; read-out: ED50 A431
Protocol: (§1) The plates were incubated for three days. […] Dose response studies were performed to generate ED50 values.

BC-1 (breast) = experiment: as above; type: cell-based; conditions: Homo sapiens, 72 h; three days incubation, SRB; read-out: ED50 BC-1
Protocol: as §1

COL-2 (colon) = experiment: as above; type: cell-based; conditions: Homo sapiens, Col2, 72 h; three days incubation, SRB; read-out: ED50 COL-2
Protocol: as §1

HT-1080 (sarcoma) = experiment: as above; type: cell-based; conditions: Homo sapiens, HT-1080, 72 h, three days incubation, read-out: ED50 HT-1080
Protocol: as §1

[1] = test system: KB (human oral epidermoid carcinoma); experiment: as above; type: cell-based
Protocol: as §1

LNCaP (prostate) = experiment: as above; type: cell-based; conditions: Homo sapiens, LNCaP, 72 h; three days incubation, SRB; read-out: ED50 LNCaP
Protocol: as §1

LU-1 (lung) = experiment: as above; type: cell-based; conditions: Homo sapiens, 72 h, three days incubation, read-out: ED50 LU-1
Protocol: as §1

U373 (glioma) = experiment: as above; type: cell-based; conditions: Homo sapiens, U373 MG, 72 h; three days incubation, SRB; read-out: ED50 U373
Protocol: as §1

ZR-75-1 (breast) = experiment: as above; type: cell-based; conditions: Homo sapiens, ZR-75-1, 72 h; three days incubation, SRB; read-out: ED50 ZR 75-1
Protocol: as §1

MEL-1 = experiment: Dose-response study, additional human melanoma cell line; type: cell-based
Protocol: (§2) Moreover, the cytotoxic response mediated by betulinic acid is not exclusively limited to the MEL-2 melanoma cell line.
as §1

MEL-3 = experiment: as above; type: cell-based
Protocol: as §2, §1

MEL-4 = experiment: as above; type: cell-based
Protocol: as §2, §1

LOX melanoma cell line = experiment: Cytotoxicity of betulinic acid derivatives; type: cell-based, human; conditions: Tables 2-6
Protocol: as §1

[2] = test system: MALE-3M melanoma cell line; experiment: Cytotoxicity of betulinic acid derivatives; type: cell-based, human; conditions: Tables 2-6
Protocol: as §1

MEL-6 melanoma cell line = experiment: Cytotoxicity of betulinic acid derivatives; type: cell-based, human; conditions: Tables 2-6
Protocol: as §1

MEL-8 melanoma cell line = experiment: Cytotoxicity of betulinic acid derivatives; type: cell-based, human; conditions: Tables 2-6
Protocol: as §1

[3] = test system: human melanoma cells (MEL-2); experiment: In vivo activity against established MEL-2 melanomas in athymic mice; conditions: treatment from day 13, IP every third day; betulinic acid/PVP 250 mg/kg/dose, DTIC 4 mg/kg/dose
Protocol: Next, in vivo testing of betulinic acid was performed on established melanomas. In this study, treatment was withheld until day 13, by which time a palpable tumor mass was present in all mice.
In particular, with respect to FIG. 2, four-week-old athymic mice were injected with 5×10^8 MEL-2 cells subcutaneously in the right flank. Four treatment groups of five mice each were studied. In one group, the mice received 250 mg/kg/dose of IP betulinic acid/PVP every third day for six total doses initiated the day following tumor cell injection. The control group received 0.5 ml IP saline. A DTIC treatment group received 4 mg/kg/dose IP DTIC every third day from day 13 to day 28 of the study. The betulinic acid treatment group received 250 mg/kg/dose IP betulinic acid/PVP every third day from day 13 to day 27. The control and DTIC-treated mice were sacrificed and autopsied on day 36 due to their large tumor burden. The remaining mice were sacrificed and autopsied on day 41.

human lymphocytes = experiment: Formation of the 50 Kbp DNA fragment in normal cells; type: cell-based; conditions: 2 and 20 μg/ml, time-course
Solubility in water = type: physicochemical; conditions: listed as betulinic acid
P-388 murine lymphocyte = conditions: tests conducted by the National Cancer Institute; cited from earlier work

SMILES: C=C(C)[C@@H]1CC[C@]2(C(=O)O)CC[C@]3(C)[C@H](CC[C@@H]4[C@@]5(C)CC[C@H](O)C(C)(C)[C@@H]5CC[C@]43C)[C@@H]12 [Compound 10, 3β-hydroxy-lup-20(29)-ene-28-oic acid]
- IC50 (A431 (squamous cells)): > 20 µg/mL
- IC50 (BC-1 (breast)): > 20 µg/mL
- IC50 (COL-2 (colon)): > 20 µg/mL
- IC50 (HT-1080 (sarcoma)): > 20 µg/mL
- IC50 ([1]; Homo sapiens, 72 h, three days incubation, SRB, Table 1, read-out: ED50 KB): > 20 µg/mL
- ED50 (Std. Dev.) KB ([1]; derivatives, Tables 2-6): >20 µg/mL
- IC50 (LNCaP (prostate)): > 20 µg/mL
- IC50 (LU-1 (lung)): > 20 µg/mL
- IC50 (U373 (glioma)): > 20 µg/mL
- IC50 (ZR-75-1 (breast)): > 20 µg/mL
- ED50 MEL-1 (MEL-1): 1.1 µg/mL (≈ 2.41 µM)
- ED50 MEL-3 (MEL-3): 3.3 µg/mL (≈ 7.23 µM)
- ED50 MEL-4 (MEL-4): 4.8 µg/mL (≈ 10.5 µM)
- ED50 (Std. Dev.) LOX (LOX melanoma cell line): >20 µg/mL
- ED50 (Std. Dev.) MALE-3M [2]: 17.6 (0.5) μg/mL
- ED50 (Std. Dev.) MEL-6 (MEL-6 melanoma cell line): 13.2 (1.5) μg/mL
- ED50 (Std. Dev.) MEL-8 (MEL-8 melanoma cell line): 1.0 (0.3) μg/mL
- tumor growth, established MEL-2 tumors (FIG. 2) [3]: successfully abrogated tumor growth; also recorded: significantly less than that observed in the DTIC-treated animals
- formation of the 50 Kbp fragment in human lymphocytes (human lymphocytes): did not demonstrate formation of the 50 Kbp fragment
- solubility in water (Solubility in water): poor solubility in water; also recorded: low water solubility
- antitumor activity, P-388 (P-388 murine lymphocyte): activity was not supported
